Measurements taken from US12653802B2, “Method for treating lung cancer” (priority 2020, dated 2026).

Key:
GR5 cells = experiment: Cell survival assay in gefitinib-resistant NSCLC cells, IC50 (FIG. 1C); assay type: cell-based; conditions: treated for 3 days, versus curcumin
Description: (§1) Experimentally, another 7 EGFR-TKIs resistant NSCLC cells were treated with Compound 21a, Compound 35a, Compound 35d, Compound 36 or Compound 37, and then the cell survival assay was performed to measure the IC50 values of the diarylheptanoid compounds of the present disclosure in the EGFR-TKIs resistant NSCLC cells, so as to determine the growth inhibitory effect of the diarylheptanoid compounds of the present disclosure on the EGFR-TKIs resistant NSCLC cells.
(§2) Please refer to FIG. 1B, FIG. 1C and FIG. 1D.

GR2 cells = experiment: as above; assay type: cell-based; conditions: treated for 3 days, versus curcumin
Description: as §1, §2

GR10 cells = experiment: as above; assay type: cell-based; conditions: treated for 3 days, versus curcumin
Description: as §1, §2

GR9 cells = experiment: as above; assay type: cell-based; conditions: treated for 3 days, versus curcumin
Description: as §1, §2

GR8 cells = experiment: as above; assay type: cell-based; conditions: treated for 3 days, versus curcumin
Description: as §1, §2

GR6 cells = experiment: as above; assay type: cell-based; conditions: treated for 3 days, versus curcumin
Description: as §1, §2

H1975 cells = experiment: Cell survival assay in EGFR-TKIs resistant NSCLC cells, IC50 (FIG. 1B); assay type: cell-based; conditions: treated for 3 days, versus curcumin
Description: as §1, §2

H1650 cells = experiment: Growth inhibition of EGFR gene mutant NSCLC cells, cell survival stained with crystal violet, IC50 (FIG. 1A); assay type: cell-based; conditions: treated for 3 days, versus parent compound curcumin
Description: The EGFR gene mutant NSCLC cells were treated with the diarylheptanoid compounds of the present disclosure, and then the cell survival was stained with crystal violet to measure the IC50 values of the diarylheptanoid compounds of the present disclosure in the EGFR gene mutant NSCLC cells, so as to determine the growth inhibitory effect of the diarylheptanoid compounds of the present disclosure on the EGFR gene mutant NSCLC cells.
EGFR gene mutations in lung cancer are mostly found in exons 18-21, which are the intracellular tyrosine kinase coding region. The most common mutations include E746-A750del in exon 19 and L858R point mutation in exon 21, which account for about 85%-90% of EGFR gene mutations. Tumor cells with these two mutations are sensitive to the EGFR-TKIs, known as activating mutations. Secondary mutations may occur in some tumor cells, and the most common secondary mutation is the T790M mutation in exon 20, which is a drug resistance mutation. […] The H1650 cells have the E746-A750del mutation in exon 19 of the EGFR gene, wherein the CCM represents curcumin and the BDMC represents bisdemethoxycurcumin.

[1] = Body weight changes in GR6 tumor mice, single and combined treatment (FIG. 3B); assay type: in vivo; conditions: Compound 35d 100 mg/kg per day alone or with osimertinib 1 mg/kg per day
Description: (§3) EGFR-TKIs are currently the standard treatment for NSCLC patients with the EGFR gene mutation. To further test whether the combined use of the diarylheptanoid compound of the present disclosure and known drug can enhance the therapeutic effect of NSCLC, the GR6 tumor mice were divided into 4 groups. One group received 100 mg/kg Compound 35d treatment per day (represented as 35d), another group received 1 mg/kg osimertinib treatment per day (represented as Osi), still another group received the combined treatment of 100 mg/kg Compound 35d and 1 mg/kg osimertinib per day (represented as 35d+Osi), and the other group was the control group without drug treatment.

[2] = Body weight changes in the tumor mice treated with Compound 35d alone (FIG. 2D); assay type: in vivo; conditions: 100 mg/kg daily, treated for more than 1 month
Description: In order to verify the anticancer effect of the diarylheptanoid compound of the present disclosure in vivo, the GR6 tumor mouse model, the GR8 tumor mouse model and the HCC827 tumor mouse model of xenotransplantation were first established, and the GR6 tumor mice, the GR8 tumor mice, and the HCC827 tumor mice were treated with 100 mg/kg of Compound 35d daily for 35 days, and the tumor size and body weight of the GR6 tumor mice, the GR8 tumor mice, and the HCC827 tumor mice were recorded.

GR6 tumor = experiment: Tumor re-progression in GR6 tumor mice, single and combined treatment with osimertinib (FIG. 3A); assay type: in vivo; conditions: Compound 35d 100 mg/kg per day, osimertinib 1 mg/kg per day, alone or combined
Description: as §3

| SMILES | inhibitory activity on the growth of the GR5 cells (IC50) compared with curcumin (GR5 cells) | inhibitory activity on the growth of the GR2 cells (IC50) compared with curcumin (GR2 cells) | inhibitory activity on the growth of the GR10 cells (IC50) compared with curcumin (GR10 cells) | inhibitory activity on the growth of the GR9 cells (IC50) compared with curcumin (GR9 cells) | inhibitory activity on the growth of the GR8 cells (IC50) compared with curcumin (GR8 cells) | inhibitory activity on the growth of the GR6 cells (IC50) compared with curcumin (GR6 cells) | inhibitory activity on the growth of the H1975 cells (IC50) compared with curcumin (H1975 cells) | inhibitory activity on the growth of the H1650 cells (IC50) compared with curcumin (H1650 cells) | body weight of the GR6 tumor mice [1] | body weight of the tumor mice [2] | tumor size / tumor re-progression in the GR6 tumor mice (GR6 tumor) |
| --- | --- | --- | --- | --- | --- | --- | --- | --- | --- | --- | --- |
| COc1cc(/C=C/C(=O)/C=C(O)/C=C/c2ccc(OC(=O)C(C)(CO)CO)c(OC)c2)ccc1OC(=O)C(C)(CO)CO [Compound 21a, ((1E,3Z,6E)-3-hydroxy-5-oxohepta-1,3,6-triene-1,7-diyl)bis(2-methoxy-4,1-phenylene)bis(3-hydroxy-2-hydroxymethyl)-2-methylpropanoate] | significantly better inhibitory activity than curcumin | significantly better inhibitory activity than curcumin | significantly better inhibitory activity than curcumin | significantly better inhibitory activity than curcumin | significantly better inhibitory activity than curcumin | significantly better inhibitory activity than curcumin | significantly better inhibitory activity than curcumin | significantly better inhibitory activity than the parent compound—curcumin |  |  |  |
| COc1cc(/C=C/C(=O)C(C)(C)C(=O)/C=C/c2ccc(OC(=O)C(C)(CO)CO)c(OC)c2)ccc1OC(=O)C(C)(CO)CO [Compound 35a, ((1E,6E)-4,4-dimethyl-3,5-dioxohepta-1,6-diene-1,7-diyl)bis(2-methoxy-4,1-phenylene)bis(3-hydroxy-2-hydroxymethyl)-2-methylpropanoate] | significantly better inhibitory activity than curcumin | significantly better inhibitory activity than curcumin | significantly better inhibitory activity than curcumin | significantly better inhibitory activity than curcumin | significantly better inhibitory activity than curcumin | significantly better inhibitory activity than curcumin | significantly better inhibitory activity than curcumin | significantly better inhibitory activity than the parent compound—curcumin |  |  |  |
| C#CCC(CC#C)(C(=O)/C=C/c1ccc(OC(=O)C(C)(CO)CO)c(OC)c1)C(=O)/C=C/c1ccc(OC(=O)C(C)(CO)CO)c(OC)c1 [Compound 35d, ((1E,6E)-3,5-dioxo-4,4-di(prop-2-yn-1-yl)hepta-1,6-diene-1,7-diyl)bis(2-methoxy-4,1-phenylene)bis(3-hydroxy-2-(hydroxymethyl)-2-methylpropanoate)] |  |  |  |  |  |  |  |  | neither the single treatment of Compound 35d nor the combined treatment of Compound 35d and osimertinib can significantly reduce the body weight | did not decrease significantly |  |
| C=CC(=O)Nc1cc(Nc2nccc(-c3cn(C)c4ccccc34)n2)c(OC)cc1N(C)CCN(C)C [osimertinib] |  |  |  |  |  |  |  |  |  |  | initially reduced by osimertinib treatment, the treated tumors subsequently re-growth |
